Data from the supplement of paper PMC10307832.

Compound: C[C@]1(O)C[C@@H](c2nc(-c3ccc4ccc(-c5ccccc5)nc4c3)c3c(N)nccn32)C1 [Linsitinib]
Test: relative viability (nuclei count vs DMSO), 5 days (fraction); higher = more cells survive
Procedure, shortened: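 Following overnight incubation at 37 °C, lung cancer cell lines in 1536-well plates were pinned with five library-drug doses (not always all listed) in √10 steps on vehicle-anchored plates. The cells then spent 5 days without medium change before a combined fix, permeabilisation and Hoechst stain, 4× imaging and MetaXpress nuclear counts. Viability is the treated-to-vehicle ratio of nuclei, taken as the median across plates. Only plates with control CV below 25% and at least one doubling passed.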

Row | Cell Line | relative viability (0.01 µM) | relative viability (0.03162 µM) | relative viability (0.1 µM) | relative viability (0.3162 µM) | relative viability (1 µM) | relative viability (1 µM, anchor plate)
1 | NCI-H441 | 0.951 | 0.981 | 0.986 | 0.497 | 0.636 | 0.519
2 | NCI-H520 | 0.97 | 0.948 | 1.06 | – | 1.02 | 0.951
3 | CAL-12T | 1.01 | 0.917 | 0.951 | 0.752 | 0.879 | 0.839
4 | HCC-827 | 1.06 | 1.02 | 1.09 | – | 1.01 | 0.967
5 | LC-2-ad | 0.941 | 0.896 | 0.967 | 0.735 | 0.756 | 0.86
6 | NCI-H2170 | 1.02 | 0.962 | 0.939 | 0.746 | 1.02 | –
7 | SW 1573 | 1.04 | 1.01 | 0.98 | 0.796 | 0.723 | 0.801
8 | SK-MES-1 | 0.962 | 1.01 | 1.01 | 0.811 | 0.874 | 1.05
9 | SW 900 | 0.885 | 0.986 | 0.862 | 0.538 | 0.477 | –
10 | NCI-H1793 | 0.867 | 0.906 | 0.917 | 0.757 | 0.682 | 0.903
11 | NCI-H1299 | 1.01 | 0.999 | 1.02 | 0.918 | 1.02 | 0.977
12 | LCLC-97TM1 | 0.901 | 1.01 | 0.99 | 0.329 | 0.477 | 0.186
13 | NCI-H1915 | 1.02 | 1.04 | 1.01 | 0.828 | 0.684 | 1.07
14 | NCI-H661 | 0.926 | 1.09 | 1.01 | 0.853 | 1.04 | 0.63
15 | NCI-H2405 | 0.93 | 0.966 | 1 | 0.821 | 0.678 | 0.891
16 | NCI-H2347 | 1.09 | 1.19 | 0.981 | 0.805 | 0.942 | 0.935
17 | NCI-H1651 | 0.969 | 1 | 0.942 | 0.826 | 0.939 | 1.01
18 | H3255 | 0.872 | 0.933 | 0.927 | 0.74 | 0.896 | 0.972
19 | Calu-6 | 0.946 | 0.892 | 1.01 | 0.862 | 0.857 | 0.96
20 | NCI-H522 | 0.969 | 0.927 | 0.838 | 0.742 | 0.872 | –
21 | NCI-H650 | 0.889 | 0.996 | 0.875 | – | 0.783 | 0.914
22 | NCI-H460 | 0.966 | 0.927 | 0.977 | 0.872 | 0.949 | 0.789
23 | NCI-H2228 | 0.882 | 0.873 | 0.768 | 0.752 | 0.746 | 0.741
24 | NCI-H2085 | 0.93 | 1 | 1.05 | 0.915 | 0.906 | 0.888
25 | HCC-366 | 1 | 0.989 | 0.925 | 0.917 | 0.938 | 0.658
26 | EPLC-272H | 1.02 | 1.01 | 0.799 | – | 0.879 | 1.19
27 | 201T | 0.988 | 0.989 | 1.01 | 0.967 | 0.911 | 1.03

Row | Cell Line | relative viability (0.01 µM) | relative viability (0.03162 µM) | relative viability (0.1 µM) | relative viability (0.3162 µM) | relative viability (1 µM) | relative viability (1 µM, anchor plate)
28 | NCI-H3122 | 0.99 | 0.947 | 1 | 0.575 | 1.02 | 1.01
29 | NCI-H838 | 0.975 | 0.905 | 0.906 | 0.493 | 0.667 | 1.06
30 | NCI-H1755 | 0.976 | 1.01 | 1.01 | 0.769 | 0.915 | 0.996
31 | HCC-15 | 1.07 | 0.887 | 0.984 | 0.383 | 0.675 | 0.89
32 | NCI-H2087 | 1.07 | 1.04 | 1.13 | 0.615 | 0.683 | 0.908
33 | LCLC-103H | 1.01 | 0.89 | 0.976 | 0.823 | 0.879 | 1.06
34 | NCI-H1650 | 0.917 | 0.894 | 0.926 | 0.477 | 0.665 | –
35 | LK-2 | 0.994 | 1.09 | 0.919 | 0.594 | 0.744 | 0.6
36 | NCI-H1648 | 1.11 | 0.972 | 0.868 | 0.345 | 0.8 | –
37 | NCI-H2342 | 0.889 | 1.07 | 0.86 | 1.01 | 0.768 | –
38 | EBC-1 | 0.991 | 0.967 | 1.05 | 0.778 | 0.93 | 0.903
39 | ChaGo-K-1 | 1.04 | 0.962 | 1.02 | 0.681 | 0.882 | –
40 | HCC-78 | 0.794 | 1.03 | 0.816 | 0.868 | 0.699 | 0.538
41 | NCI-H1666 | 0.975 | 0.983 | 1.04 | 0.755 | 0.747 | 0.878
42 | IA-LM | 1.01 | 0.983 | 0.824 | 0.802 | 0.646 | 0.619
43 | EKVX | 0.99 | 0.991 | 0.999 | 0.739 | 0.832 | 1.01
44 | COR-L 105 | 0.884 | 0.864 | 0.875 | 0.709 | 0.761 | 0.96
45 | NCI-H322M | 0.954 | 0.993 | 0.95 | 0.814 | 0.701 | 0.95
46 | HARA | 1.07 | 0.837 | 0.967 | 0.697 | 0.807 | 0.948
47 | NCI-H1703 | 0.881 | – | 0.873 | 0.577 | 0.492 | 0.9
48 | NCI-H2023 | 0.912 | 0.668 | 0.949 | 0.649 | 0.618 | 0.687
49 | NCI-H1437 | 1.01 | 0.963 | 0.997 | 0.945 | 1.01 | 1.02
50 | BEN | 0.945 | 0.948 | 0.832 | 0.657 | 0.933 | 0.935
51 | LXF-289 | 1.04 | 0.974 | 1.04 | 0.768 | 0.977 | 0.976
52 | NCI-H358 | 0.86 | 0.978 | 0.9 | 0.809 | 0.522 | 0.749
53 | A549 | 0.929 | 0.978 | 0.963 | 0.729 | 0.615 | 0.601
54 | NCI-H1993 | 1.03 | 0.916 | 0.879 | 0.622 | 0.607 | 0.759

Row | Cell Line | relative viability (0.01 µM) | relative viability (0.03162 µM) | relative viability (0.1 µM) | relative viability (0.3162 µM) | relative viability (1 µM) | relative viability (1 µM, anchor plate)
55 | NCI-H727 | 0.961 | 0.866 | 0.895 | 0.461 | 0.591 | 0.305
56 | LOU-NH91 | 0.873 | 0.943 | 0.991 | 1 | 0.801 | 0.942
57 | NCI-H1975 | 0.939 | 0.927 | 0.869 | 0.835 | 0.775 | 0.984
58 | PC-3 [JPC-3] | 1.04 | 1.06 | 1.1 | 0.947 | 0.916 | 0.949
59 | NCI-H2126 | 1.01 | 0.971 | 1 | 0.818 | 0.71 | 0.715
60 | LU99A | 0.915 | 0.968 | 0.899 | 0.483 | 0.738 | 0.555
61 | NCI-H23 | 1.06 | 0.862 | 0.903 | 0.509 | 0.578 | 0.631
62 | PC-14 | 0.963 | 0.929 | 0.981 | 0.895 | 0.867 | 0.959
63 | HCC-44 | 0.964 | 0.967 | 0.96 | 0.668 | 0.659 | 0.702
64 | A-427 | 1.02 | 1.11 | 0.985 | – | 0.858 | 1.13
65 | NCI-H1623 | 0.889 | 0.955 | 0.889 | – | 0.815 | –
66 | NCI-H596 | 1.04 | 0.942 | 0.998 | 0.933 | 0.886 | 1.06
67 | RERF-LC-KJ | 1 | 1.01 | 0.949 | 0.682 | 0.871 | 0.878
68 | NCI-H647 | 0.968 | 0.881 | 1.03 | – | 0.859 | 1.18
69 | NCI-H1734 | 1.06 | 1.04 | 0.88 | 0.674 | 0.721 | 0.862
70 | SK-LU-1 | 1.01 | 0.859 | 1.03 | 0.6 | 0.967 | 0.999
71 | NCI-H1563 | 1.03 | 0.924 | 1.09 | 1.3 | 0.93 | 1.22
72 | NCI-H1395 | 0.935 | 0.79 | 1.03 | 0.806 | 0.893 | 1.17
73 | COR-L23 | 0.975 | 1.04 | 1.07 | 0.911 | 0.998 | 0.89
74 | EMC-BAC-2 | 0.922 | 0.984 | 0.931 | 0.725 | 0.602 | 0.833
75 | NCI-H1355 | 1.02 | 0.984 | 0.947 | 0.787 | 0.615 | 0.848
76 | NCI-H1792 | 0.932 | 0.897 | 0.712 | 0.455 | 0.33 | 0.571
77 | NCI-H1944 | 1.03 | 1.08 | 0.949 | 0.579 | 0.535 | 1.2
78 | ABC-1 | 0.88 | 0.789 | 0.993 | 0.617 | 0.533 | 0.859
79 | HOP-62 | 1 | 1.07 | 1.09 | – | 0.791 | 1.02
80 | NCI-H2009 | 0.974 | 0.994 | 1.06 | 0.669 | 0.979 | 1.18
